The text below walks through data of publication PMC3329467, “Stereoselective Regulations of P-Glycoprotein by Ginsenoside Rh2 Epimers and the Potential Mechanisms From the View of Pharmacokinetics” (PLoS ONE, 2012).

Structures are written as SMILES. Read-outs that look alike come from different tables or passages of the source. Where only a bound is given, the exact number is not on record here.

Data set [1] deals with T1, P-gp (Homo sapiens, UniProt P08183).
T1 construct: host or cells: Caco-2 cell monolayers
Description: P-gp mediated bidirectional transport of digoxin across Caco-2 cell monolayers. The class given is cell-based. The method, then:
The Caco-2 cell transport model was established as described previously. Then, Hank's balanced salt solution (HBSS) containing 20(S)-Rh2, 20(R)-Rh2, 20(S)-Ppd, 20(R)-Ppd or 0.1% DMSO (control) was loaded into both apical and basolateral chambers. After incubation at 37°C for 1 h, 5 µM digoxin was added to either apical or basolateral side to evaluate the transport in absorptive and secretory direction respectively. After incubation for just another 2 h, samples were taken from the receiving chamber for analysis. Verapamil (10 µM) was used as a positive control. Digoxin was determined by LC-MS/MS. All experiments were conducted in triplicate.
For the transport assay, the apparent permeability coefficient (Papp) and efflux ratio (ER) were calculated as reported previously.

The nature of data set [2]: Oral pharmacokinetics of 20(S)-Rh2 and 20(R)-Rh2 in rats (stereoselective LC-MS). It is filed as in vivo, rat. The settings on record: for Detection in plasma: after oral administration of 20(R)-Rh2, rats; for Cmax / Tmax / MRT last: Sprague-Dawley, rat, po; for MRT last: read-out: MRT 0-t (converted); for Inverted proportion (chiral inversion): after oral administration of a single configuration of Rh2, rats. The method, then:
To investigate the differences of pharmacokinetic characteristics between 20(S)-Rh2 and 20(R)-Rh2, rats were divided into 2 groups with five rats for each group. One received a single dose of 20(S)-Rh2 intragastrically at 25 mg/kg suspended in 0.5% CMC-Na, while the other received 20(R)-Rh2 at the same dosage. Blood samples were collected at 0, 30, 60, 180, 240, 300, 360, 480, 660 and 840 min after oral administration into heparinized tubes. Plasma was obtained by centrifugation at 5000 g for 10 min and stored at −20°C before analysis.
The 20(S)-Rh2, 20(R)-Rh2 and the deglycosylation metabolites 20(S)-Ppd and 20(R)-Ppd were quantified simultaneously by reversed-phase LC-MS. An aliquot of 100 µl sample spiked with digitoxin as internal standard was extracted by 1 ml ethylacetate. The analysis was performed on Finnigan LC-MS system (Thermo Electron, San Jose, CA, USA) with a Lux Cellulose-1 Chiral Column (250×4.6 mm, 5 µm, Phenomenex, USA). The column and autosampler tray temperatures were 40 and 4°C, respectively. The mobile phase was consisted of methanol, acetonitrile and 0.1% formic acid with gradient elution (Table 5). Mass spectrometer was operated in positive ESI mode. MS parameters were as follows: spray voltage, 5.0 kV; sheath gas/auxiliary gas, nitrogen; sheath gas pressure, 35×10^5 Pa; auxiliary gas pressure, 20×10^5 Pa; ion transfer capillary temperature, 300°C. Quantification was performed using SIM mode with [M+Na]^+ peak: m/z 645.4 for Rh2; m/z 483.3 for Ppd; m/z 787.5 for digitoxin (internal standard).
(§1) The pharmacokinetic parameters of digoxin, 20(S)-Rh2 and 20(R)-Rh2 in rats were obtained by noncompartmental analysis using DAS (Drug and Statistics, version 2.1, Chinese Pharmacological Society). The area under the plasma concentration-time curve (AUC) was calculated using the trapezoidal method.

Data set [3] concerns P-gp. Description: Effects of Rh2 epimers on oral pharmacokinetics of P-gp substrate digoxin in rats. The class given is in vivo, rat. How it is done: The rats were divided into five groups with five each. One group of rats received i.g. single dose of the vehicle (0.5% CMC-Na) serving as the control. Two groups were i.g. administered 20(S)-Rh2 suspended in 0.5% CMC-Na at the doses of 5 mg/kg and 50 mg/kg respectively, while another two groups i.g. administration of 20(R)-Rh2 suspended in 0.5% CMC-Na at the doses of 5 mg/kg and 50 mg/kg respectively. Two hours later, P-gp substrate, digoxin (0.25 mg/kg) was given to the rats by i.g. administration. Blood samples were collected before the P-gp substrate dosing and at 0.08, 0.17, 0.25, 0.5, 1, 2, 3, 6, 8 h post-digoxin-dosing. Plasma was obtained by centrifugation at 5000 g for 10 min and stored at −20°C before analysis. Plasma concentrations of digoxin were determined as described previously.
as §1

The subject of the next data set is osteoclastgenesis. To be noted: cited from earlier work.
A further data set has as its system osteoclasts. The settings on record: cited from earlier work.
Data set [4] has as its system Ca^2+, K^+ and Na^+ channel. Set-up: method as in PMID 15650337, PMID 15979567. The settings on record: dose- and voltage-dependent; cited from earlier work.
The subject of another data set is P-glycoprotein (P-gp). To be noted: in vitro and in vivo; cited from earlier work.
For data set [5], the system named is androgen-dependent and –independent prostate cancer cells. The arrangement: method as in PMID 20554003. To be noted: cited from earlier work.
For the next data set, the system named is human fecal microflora. Set-up: method as in PMID 11824558. The settings on record: cited from earlier work.
On the set-up of data set [6]: method as in PMID 19524010. To be noted: 1–9 mg/kg i.g., rats; cited from earlier work.
Where [7] appears, read: 1 h preincubation, 5 µM digoxin 2 h, concentration series.
[8] abbreviates: in vivo, 25 mg/kg, after oral administration of the same epimer, rats.
[9] abbreviates: in vivo, 25 mg/kg, plasma analyte after i.g. 20(R)-Rh2 25 mg/kg, rats.
Where [10] appears, read: in vivo, 25 mg/kg, plasma analyte after i.g. 20(S)-Rh2 25 mg/kg, rats.
Setting [11] is: plasma analyte after i.g. 20(R)-Rh2 25 mg/kg, rats.
The mark [12] stands for this setting: plasma analyte after i.g. 20(S)-Rh2 25 mg/kg, rats.

One may read the Tmax as the time at which the peak concentration occurs.

T1 sequence (P08183 whole entry): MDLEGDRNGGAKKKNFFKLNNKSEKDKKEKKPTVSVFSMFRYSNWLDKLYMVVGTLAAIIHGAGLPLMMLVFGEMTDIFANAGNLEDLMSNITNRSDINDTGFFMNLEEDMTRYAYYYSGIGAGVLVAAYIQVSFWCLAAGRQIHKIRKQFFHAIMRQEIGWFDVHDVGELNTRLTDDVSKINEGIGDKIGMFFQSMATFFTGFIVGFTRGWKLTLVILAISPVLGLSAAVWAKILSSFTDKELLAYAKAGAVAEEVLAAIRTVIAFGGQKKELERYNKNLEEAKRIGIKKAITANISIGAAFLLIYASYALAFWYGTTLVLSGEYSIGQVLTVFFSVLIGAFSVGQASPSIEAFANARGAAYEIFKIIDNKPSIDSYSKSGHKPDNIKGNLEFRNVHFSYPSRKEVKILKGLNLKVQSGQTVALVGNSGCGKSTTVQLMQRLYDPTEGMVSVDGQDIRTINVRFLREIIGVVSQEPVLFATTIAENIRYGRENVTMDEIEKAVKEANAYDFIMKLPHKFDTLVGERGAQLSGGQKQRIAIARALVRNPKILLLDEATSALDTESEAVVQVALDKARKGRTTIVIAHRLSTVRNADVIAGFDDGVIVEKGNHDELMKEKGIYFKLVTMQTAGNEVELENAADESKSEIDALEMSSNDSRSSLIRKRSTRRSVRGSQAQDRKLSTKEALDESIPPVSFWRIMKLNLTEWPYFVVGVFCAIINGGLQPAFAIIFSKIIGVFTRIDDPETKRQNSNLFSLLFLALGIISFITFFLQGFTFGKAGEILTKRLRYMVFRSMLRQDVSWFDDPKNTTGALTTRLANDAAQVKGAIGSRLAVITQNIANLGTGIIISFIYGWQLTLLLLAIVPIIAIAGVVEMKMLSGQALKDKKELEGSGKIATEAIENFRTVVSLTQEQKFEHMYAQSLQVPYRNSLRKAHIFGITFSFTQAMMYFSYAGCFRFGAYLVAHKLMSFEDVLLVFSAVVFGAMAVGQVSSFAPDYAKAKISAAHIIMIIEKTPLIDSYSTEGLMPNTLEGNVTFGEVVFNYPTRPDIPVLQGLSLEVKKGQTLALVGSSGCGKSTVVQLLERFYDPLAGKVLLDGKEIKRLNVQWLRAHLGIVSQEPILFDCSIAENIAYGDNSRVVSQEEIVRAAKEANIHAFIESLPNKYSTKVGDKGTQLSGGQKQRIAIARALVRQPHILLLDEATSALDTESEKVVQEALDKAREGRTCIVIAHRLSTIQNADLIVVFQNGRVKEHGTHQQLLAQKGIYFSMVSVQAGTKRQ

Consider `CC(C)=CCC[C@@](C)(O)[C@H]1CC[C@]2(C)[C@@H]1[C@H](O)C[C@@H]1[C@@]3(C)CC[C@H](O)C(C)(C)[C@@H]3CC[C@]12C` [20(R)-Ppd, 20(R)-protopanaxadiol], for which the “Effect on efflux ratio of digoxin across Caco-2 cell monolayers” value (from here on “Effect on efflux ratio”) on P-gp [1] (setting [7]) is given as “lowered the efflux ratio of digoxin across Caco-2 cell monolayers concentration-dependently”. Moreover, in data set [2], the Detection in plasma entry was “not detected”.
Regarding `CC(C)=CCC[C@@](C)(O)[C@H]1CC[C@]2(C)[C@@H]1[C@H](O)C[C@@H]1[C@@]3(C)CC[C@H](O[C@@H]4O[C@H](CO)[C@@H](O)[C@H](O)[C@H]4O)C(C)(C)[C@@H]3CC[C@]12C` [20(R)-Rh2, 20(R)-ginsenoside Rh2], the “Effect on AUC and Cmax of digoxin” value in the data set with P-gp [3] (5 mg/kg i.g. prior to i.g. digoxin) is on record as “significantly enhanced”. The “Effect on absorption of digoxin compared with control group” value in the data set with P-gp [3] (50 mg/kg i.g. prior to i.g. digoxin) is given as “not changed significantly”. Besides, the Osteoclastgenesis inhibition entry with osteoclastgenesis is “selective osteoclastgenesis inhibitor”. For the same molecule, the “Effect on efflux ratio” value at P-gp [1] (1 µM, 5 µM digoxin) is recorded as “significantly lowered the efflux ratio of digoxin”; at P-gp [1] (elevated concentrations, 5 µM digoxin), “the efflux ratio of digoxin were restored”. Besides, the results for the Cmax in [2] (setting [8]), in [2] (setting [9]) and in data set [2] (setting [10]) were no more than 50 nM, 29 ± 5 ng/mL and 17 ± 2 ng/mL, respectively. Moreover, the Tmax in [2] (setting [9]) was 4.75 h; in data set [2] (setting [10]) it was 2.1 h. Besides, the MRT last was 4.65 h in data set [2] (setting [9]) and 2.38 h in [2] (setting [10]). In addition, the “Inverted proportion (chiral inversion)” value in [2] is recorded as roughly 10%. Also, the “AUC 0-t” value in data set [2] (setting [11]) came out at 13204 ± 2322 µg·min/L; in [2] (setting [12]), 8648 ± 1871 µg·min/L. For the same molecule, the Cytotoxicity in osteoclasts entry with osteoclasts is “without any cytotoxicity”.
For the molecule `CC(C)=CCC[C@](C)(O)[C@H]1CC[C@]2(C)[C@@H]1[C@H](O)C[C@@H]1[C@@]3(C)CC[C@H](O[C@@H]4O[C@H](CO)[C@@H](O)[C@H](O)[C@H]4O[C@@H]4O[C@H](CO)[C@@H](O)[C@H](O)[C@H]4O)C(C)(C)[C@@H]3CC[C@]12C` [20(R)-ginsenoside Rg3], in [4], the “Inhibition of Ca^2+, K^+ and Na^+ channel currents” value was “not”.
For the molecule `CC(C)=CCC[C@](C)(O)[C@H]1CC[C@]2(C)[C@@H]1[C@H](O)C[C@@H]1[C@@]3(C)CC[C@H](O)C(C)(C)[C@@H]3CC[C@]12C` [20(S)-Ppd, 20(S)-protopanaxadiol], the “Effect on efflux ratio” value on P-gp [1] (setting [7]) is given as “lowered the efflux ratio of digoxin across Caco-2 cell monolayers concentration-dependently”. In addition, in data set [2] (setting [12]), the Cmax came to 85 ± 7 ng/mL, the Tmax is 8.67 h, the MRT last was 9.05 h and the “AUC 0-t” value came out at 35129 ± 2261 µg·min/L.
For the molecule `CC(C)=CCC[C@](C)(O)[C@H]1CC[C@]2(C)[C@@H]1[C@H](O)C[C@@H]1[C@@]3(C)CC[C@H](O[C@@H]4O[C@H](CO)[C@@H](O)[C@H](O)[C@H]4O)C(C)(C)[C@@H]3CC[C@]12C` [20(S)-Rh2, 20(S)-ginsenoside Rh2], the Osteoclastgenesis inhibition entry with osteoclastgenesis is reported as “weak osteoclastgenesis inhibition”. Besides, in the data set with P-glycoprotein (P-gp), the P-gp inhibition entry was “effective P-gp inhibitor both in vitro and in vivo”. In addition, the “Inhibition of proliferation of prostate cancer cells” value in data set [5] was “inhibited the proliferation”. Also, the “Effect on efflux ratio” value on P-gp [1] (setting [7]) is “decreased the efflux ratio of digoxin crossing Caco-2 cell monolayers in a concentration-dependent manner”. Further, the Cmax was roughly 1000 nM in data set [2] (setting [8]), 5 ± 1 ng/mL in data set [2] (setting [9]) and 572 ± 162 ng/mL in [2] (setting [10]). Moreover, the time of peak concentration (Tmax) in [2] (setting [9]) was 2.33 h; in data set [2] (setting [10]), 3.45 h. For the same molecule, the MRT last is 2.2 h in data set [2] (setting [9]) and 3.35 h in data set [2] (setting [10]). Moreover, in data set [2], the “Inverted proportion (chiral inversion)” value is given as roughly 10%. The “AUC 0-t” value in data set [2] (setting [11]) was 1193 ± 230 µg·min/L; in data set [2] (setting [12]) it was 149888 ± 40725 µg·min/L. Also, in data set [2] (same oral dosage, rats), the “AUC higher than that of 20(R)-Rh2” value is recorded as 10 fold. The Cytotoxicity in osteoclasts result in the data set with osteoclasts is reported as “strong cytotoxicity”.
For `CC(C)=CCC[C@](C)(O)[C@H]1CC[C@]2(C)[C@@H]1[C@H](O)C[C@@H]1[C@@]3(C)CC[C@H](O[C@@H]4O[C@H](CO)[C@@H](O)[C@H](O)[C@H]4O[C@@H]4O[C@H](CO)[C@@H](O)[C@H](O)[C@H]4O)C(C)(C)[C@@H]3CC[C@]12C` [20(S)-ginsenoside Rg3], the “Amount transformed to 20(S)-ginsenoside Rh2, higher than 20(R)-Rg3 to 20(R)-Rh2” value in the data set on human fecal microflora is given as 19 fold. Moreover, in data set [4], the “Inhibition of Ca^2+, K^+ and Na^+ channel currents” value is recorded as “inhibited”.
With `C[C@H]1O[C@@H](O[C@H]2[C@@H](O)C[C@H](O[C@H]3[C@@H](O)C[C@H](O[C@H]4CC[C@@]5(C)[C@H](CC[C@@H]6[C@@H]5C[C@@H](O)[C@]5(C)[C@@H](C7=CC(=O)OC7)CC[C@]65O)C4)O[C@@H]3C)O[C@@H]2C)C[C@H](O)[C@@H]1O` [Digoxin], in the data set with P-gp [3] (Sprague-Dawley (SD), rat, plasma, po, digoxin 0.25 mg/kg i.g., control (no Rh2)), the Cmax was found to be 9.9 ± 2.6 nM. Besides, the AUC 0-t with P-gp [3] (Sprague-Dawley (SD), rat, plasma, po, digoxin 0.25 mg/kg i.g., control (no Rh2), read-out: AUC 0–12 of digoxin) worked out at 0.0154 ± 0.0029 µM·h. Moreover, the MRT last in the data set on P-gp [3] (Sprague-Dawley (SD), rat, plasma, po, digoxin 0.25 mg/kg i.g., control (no Rh2), read-out: MRT0–12 of digoxin) was found to be 1.7 ± 0.6 h. Also, in the data set on P-gp [3] (Sprague-Dawley (SD), rat, plasma, po, digoxin 0.25 mg/kg i.g., control (no Rh2), read-out: t1/2 of digoxin (converted)), the half-life was 72 ± 24 min.
As to `CC(C)=CCC[C@@](C)(O)[C@H]1CC[C@]2(C)[C@@H]1[C@H](O)C[C@@H]1[C@@]3(C)CC[C@H](O)C(C)(C)[C@@H]3CC[C@]12C` [Ppd, protopanaxadiol], in [2], the Detection in plasma entry is given as “no Ppd was found”.
On to `CC(C)=CCC[C@](C)(O)[C@H]1CC[C@]2(C)[C@@H]1[C@H](O)C[C@@H]1[C@@]3(C)CC[C@H](O[C@@H]4O[C@H](CO)[C@@H](O)[C@H](O)[C@H]4O)C(C)(C)[C@@H]3CC[C@]12C` [Rh2, ginsenoside Rh2], for which, in [6], the Absolute bioavailability is 4.0–6.4%.
